The test system of one experiment is CD8+ OT-I T cells. The experiment can be described thus: OT-I splenocyte culture with K-Ras(G12C) inhibitors. The conditions noted are these: 5 μM. The format is cell-based, mouse.
A further experiment deals with M8 tetramer+ CD8+ TILs. Kind of experiment: Rapid expansion of M8 tetramer+ CD8+ TILs from MC38 tumors. The experiment is classed as cell-based, mouse. The conditions noted are these: 5 μM. The text has this: We further observed that K-Ras(G12C) inhibitor 12 prevents the generation of terminally exhausted (PD-1^+, Tim-3^+) antigen-specific CD8^+ tumor infiltrating lymphocytes (TILs) and facilitates production of progenitor-like (Tpex, Tim-3^−, TCF-1^+) antigen-specific CD8^+ TILs during in vitro expansion. Specifically, to elucidate the ability of K-Ras(G12C) inhibitor 12 to modulate properties of tumor infiltrating lymphocytes (TILs) in vitro, we utilized an MC38 murine colonic cancer model. C57BL/6J (B6) mice were inoculated with MC38 cells. Tumors were grown for 14 days and then harvested. Antigen specific (H-2K^b-restricted MuLV p15E604-611-specific, henceforth M8 tetramer^+) CD8^+ TILs were isolated. M8 tetramer^+ CD8^+ TILs were subjected to rapid expansion. On day 1 of rapid expansion, TILs were added 1:100 with irradiated BALB/c splenocytes and incubated with 1500 IU/mL IL2 for proliferation, […] anti-CD3 (mouse) antibody for activation, and with or without K-Ras(G12C) inhibitor 12 (5 μM).

In experiment [1] the test system is hPBMCs. Kind of experiment: Donor hPBMC expansion with irradiated feeder cells. The conditions noted are these: 2 μM. The experiment is classed as cell-based, human. As for the experimental part:
(FIG. 9A) Donor hPBMCs were activated twice with irradiated (50 Gy) feeder cell mixture, initially on day 0 and then similarly on day 6. […] (FIG. 9C) Gated CD8^+ hPBMCs were analyzed for the expression of inhibitory receptors Tim-3 and PD-1 (terminally exhausted phenotype downregulation not statistically significant in either donor). (FIG. 9D) the expression of Tim-3 and TCF-1. (FIG. 9E) the expression of CCR7 and CD45RA.
Donor hPBMC cells were co-cultured 1:1 with an irradiated (50 Gy) mixture of hPBMCs from five different donors (henceforth, feeder cells). Irradiation arrests cell division, yet these feeder cells retain the ability to provide extracellular secretions to help donor cells proliferate. Cytokine signaling and HLA mismatch provides for robust donor hPBMC activation. Donor hPBMCs were activated twice with the irradiated feeder cell mixture, initially on day 0 and then similarly on day 6 (FIG. 9A). Beginning on day 0, donor hPBMCs were continuously cultured with 300 IU/mL IL2 and with or without K-Ras(G12C) inhibitor 12 (2 μM) (FIG. 9A).

The next experiment relates to OT-I splenocytes. Kind of experiment: OT-I splenocyte culture with KRAS (G12C) inhibitors 9/12 and analogues. The conditions noted are these: added D0 at 5 uM or D3 at 5 uM or 10 uM, kept till day 7. The format is cell-based, mouse. The protocol: We performed additional studies to examine the observed activities of KRAS (G12C) inhibitors in modulating T cell properties. First, OT-I splenocytes were activated with OVA257-264 peptide (500 nM) for 3 days in the presence of 60 IU/mL IL-2 and cultured for another 7 days. Inhibitor 9 (i9) or inhibitor 12 (i12) was added on Day0 (D0) upon activation at 5 uM and the concentration was kept till day 7 or added on Day3 (D3) after activation at 5 uM or 10 uM and the concentration was kept till day 7 for analysis.
Other than inhibitors 9 and 12, we also tested activities of two analogues of these KRAS (G12C) inhibitors. The analogues, Z7 and Z6, are derived from Inhibitor 9 and Inhibitor 12, respectively. They have an alkynyl group for click reaction which is used for ABPP analysis to find the targets of the inhibitors (FIG. 18A). In the studies, OT-I splenocytes were activated with OVA257-264 peptide (500 nM) for 3 days in the presence of 60 IU/mL IL-2 and cultured for another 7 days. 5 uM […], i9, z6 or z7 were added on Day0 (DO) upon activation.
As noted above, Inhibitor 9 and Inhibitor 12 have a cysteine-reactive group ([…] and acrylamide) that allows covalent binding of i9 and i12 to a cysteine residue in proteins. We further tested two analogue compounds, ZT-1 and ZT-2, that are not capable of forming the covalent binding. […] Cell number was recorded on day 5 and day 7. […]

The test system of experiment [2] is hPBMCs. The experiment can be described thus: Donor hPBMC expansion with irradiated feeder cells. The format is cell-based, human. The following applies: 2 μM. The source holds these as a separate data set.
A further experiment deals with anti-GD2 CAR-T cells. Kind of experiment: Anti-GD2 CAR-T cell expansion with Inhibitor 9/12, phenotype and cell number. The conditions noted are these: Inhibitor 9 at 2 or 3 uM, Inhibitor 12 at 1 or 2 uM; day 15.
In a further experiment the test system is OT-1 cells. Kind of experiment: OT-I-Tcf7GFP splenocyte screen: proliferation and Tim3−TCF-1+ ratio. The format is cell-based, mouse. The following applies: Day7, 80 mM. The protocol:
Cell number was recorded on day 3 and day 7. On day 7, cells were stained with anti-CD8a (PerCP-Cy5.5) and anti-Tim3 (BV421) antibodies for flow cytometry or plate reader analysis.
Because TCF1 expression positively correlates with T cell stemness, the greater signal of EGFP a T cell expresses, the less differentiated the T cell is. Furthermore, if the compound also facilitates T cells proliferation, there would be more T cells per well in comparison to the untreated control. Therefore, a compound that not only maintains TCF-1 expression but also facilitates T cell growth would produce the strongest green fluorescence intensity. […] GlcA stands for glucuronic acid.

The subject of the next experiment is P14 cells. The experiment can be described thus: P14 splenocyte in vitro activation, re-stimulation and expansion. The experiment is classed as cell-based, mouse. The conditions noted are these: 80 mM; for Fold of proliferation, Normalized to W/O: P14 cells.
A further experiment concerns P14 CD8+ T cells. The format is in vivo, mouse.
The subject of experiment [3] is MC38 TSA-reactive CD8+ TILs. The experiment can be described thus: Rapid expansion of TSA-reactive CD8+ TILs from MC38 tumors. The experiment is classed as cell-based, mouse. The protocol:
Sugars were added at the beginning or during the expansion of the TILs, and kept till the end of expansion. On expansion day 9, phenotypes of the expanded T cells were assessed, and the cells were used for adoptive transfer (FIG. 6E). For adoptive transfer, 0.5 million cells (B16-OVA or MC38) were inoculated subcutaneously on each mouse on day 0, Listeria monocytogenes-OVA (LM-OVA) infection 0.5 million CFU/mice on day 1, and blood analysis was recorded on day 7.

In another experiment the test system is OVA-specific TILs. Kind of experiment: In vivo expansion of expanded OVA-specific TILs after LM-OVA challenge. More on the design: species or system mouse. The following applies: naïve mice; vs T cells expanded without added sugars.

These results are taken from patent US20250027930A1, “SMALL MOLECULES FOR REPROGRAMING ANTI-TUMOR IMMUNITY OF T CELLS” (THE SCRIPPS RESEARCH INSTITUTE, priority 2021, published 2025).

`C=CC(=O)N1CCN(C(=O)CNc2cc(I)c(Cl)cc2O)CC1` [K-Ras(G12C) inhibitor 12]: the cell expansion entry in the experiment on CD8+ OT-I T cells (OT-I) was “does not compromise cell expansion”; with M8 tetramer+ CD8+ TILs (day 8 post-expansion, pre-expansion 0.1×10^6, untreated 1.18×10^6, n=1) it was 0.397×10^6 TILs. Besides, the “generation of progenitor-like T cells” value in the experiment on CD8+ OT-I T cells (OT-I culture model) is given as “effectively promoted the generation of progenitor-like T cells”. The “terminally exhausted (PD-1^+, Tim-3^+) CD8^+ OT-I T cells” value in the experiment with CD8+ OT-I T cells (day 5, untreated 23.8%) is “about 0.46%”. Moreover, the “progenitor-like phenotype (Tim-3^−, TCF-1^+) CD8^+ OT-I T cells” value with CD8+ OT-I T cells (day 5, untreated 38.6%) is given as 91.6%. Also, in the experiment on M8 tetramer+ CD8+ TILs (day 8 post rapid expansion, untreated 79.4%), the “CD8+ cells displaying the terminally exhausted phenotype (PD-1^+ Tim-3^+)” value was determined as 29.2%. Besides, in the experiment with M8 tetramer+ CD8+ TILs (post-expansion, untreated 0.076%), the “CD8^+ cells displaying the progenitor-like phenotype (Tim-3^−, TCF-1^+)” value stood at 12.8%. The “terminally exhausted (PD-1^+, Tim-3^+) CD8^+ hPBMCs” value is 2.6% in the experiment with hPBMCs [1] (day 13, donor 3, untreated 3.52%) and 3.27% in the experiment with hPBMCs [1] (day 13, donor 4, untreated 5.01%). Also, the “terminally exhausted (PD-1^+, Tim-3^+) CD4^+ hPBMCs” value was 0.83% in the experiment with hPBMCs [1] (day 13, donor 3, untreated 15.7%) and 7.9% with hPBMCs [2] (day 13, donor 4, untreated 14.7%). For the same molecule, the “progenitor-like phenotype (Tim-3^−, TCF-1^+) CD8^+ hPBMCs” value came out at 51.5% in the experiment on hPBMCs [1] (day 13, donor 3, untreated 15.9%) and 39.7% in the experiment on hPBMCs [1] (day 13, donor 4, untreated 6.78%). For the same molecule, the “CD8^+ terminally differentiated effector memory cells (TEMRA, CCR7^−, CD45RA^+)” value in the experiment with hPBMCs [1] (donor 3 and donor 4) is “downregulated”. The “stem-like memory CD8^+ T cells (TSCM, CCR7^+, CD45RA^+)” value in the experiment with hPBMCs [1] (donor 3 and donor 4) is “produced less-differentiated stem-like memory CD8^+ T cells”. Further, the mean cell expansion entry with hPBMCs [1] (hPBMCs from both donors) is listed as “no statistically significant compromise”. In the experiment with OT-I splenocytes, the “expression of inhibitory receptors (Tim-3+PD-1)” value is given as “decreased”. In addition, the “TEMRA (donor 3) or TEM (donor 4) CD4^+ hPBMCs” value in the experiment with hPBMCs [2] is listed as “downregulated”. Besides, the “stem-like memory CD4^+ T cells (TSCM, CCR7^+, CD45RA^+)” value with hPBMCs [2] was “upregulated”. The “progenitor-like phenotype (Tim-3^−, TCF-1^+) CD4^+ hPBMCs” value came to 78.4% with hPBMCs [2] (day 13, donor 3, untreated 33.3%) and 78.7% in the experiment with hPBMCs [2] (day 13, donor 4, untreated 53.3%). For the same molecule, the “expression of inhibitory receptors (PD-1, LAG3, Tim-3 and CD39) of anti-GD2 CAR-T cells” value in the experiment with anti-GD2 CAR-T cells is recorded as “decreased the expression of inhibitory receptors”. Besides, in the experiment with anti-GD2 CAR-T cells, the “progenitor features of anti-GD2 CAR-T cells” value is listed as “increased progenitor features”.
In the case of `OC[C@H]1O[C@@](CO)(O[C@H]2O[C@H](CO)[C@@H](O)[C@H](O)[C@H]2O)[C@@H](O)[C@@H]1O` [Sucrose, sucrose], the “Tim3^−TCF-1^+ ratio of CD8^+ T cells (%)” value in the experiment with OT-1 cells (w/o 2.6) is listed as 41.2%; in the experiment on P14 cells (Day6, w/o 55.0), 89.8%; with P14 cells (Day9, w/o 3.5), 48.6%. The activity at 80000 µM in the experiment with OT-1 cells (Mus musculus, Splenocyte, 168 h, OT-1 cells, read-out: Proliferation fold, Normalized to W/O) is 86%. Moreover, the “Fold of proliferation, Normalized to W/O” value with P14 cells (Day6) turned out to be 1.80 fold; in the experiment on P14 cells (Day9), 2.85 fold. Besides, the “percentages and total numbers of expanded virus-specific P14 CD8+ T cells in the blood” value with P14 CD8+ T cells (7 dpi LCMV-Cl13, cells pre-treated in vitro, vs co-transferred untreated P14 cells) is “significantly higher”. Besides, in the experiment with P14 CD8+ T cells (14 dpi LCMV-Cl13, cells treated in vitro, vs untreated), the “percentages and total numbers of expanded virus-specific P14 CD8+ T cells in the spleen and liver” value was “significantly higher”. For the same molecule, the “cell surface anti-CLA (Cutaneous Lymphocyte-associated Antigen) staining” value in experiment [3] is listed as “significant increase”. For the same molecule, in the experiment on OVA-specific TILs, the “proliferation of transferred expanded cells after LM-OVA challenge” value is recorded as “better proliferation”.
